Results as given in ChEMBL document CHEMBL1132131, “Dopamine-selective response in membrane potential by homooxacalix[3]arene triether host incorporated in PVC liquid membrane” (Bioorg Med Chem Lett, 1999).

Assays:
[1] = Selectivity of guest-induced changes in membrane potential at pH 5.0 for PVC matrix liquid membrane without any host; format: ADME
[2] = Selectivity of guest-induced changes in membrane potential at pH 5.0 for PVC matrix liquid membranes incorporated with 6,7,9,10,17,18,20,21-Octahydro-5,8,11,16,19,22-hexaoxa-dibenzo[a,j]cyclooctadecene; format: ADME
[3] = Selectivity of guest-induced changes in membrane potential at pH 5.0 for PVC matrix liquid membranes incorporated with o-Tolyloxy-acetic acid decyl ester polymer; format: ADME
[4] = Selectivity of guest-induced changes in membrane potential at pH 5.0 for PVC matrix liquid membranes incorporated with o-Tolyloxy-acetic acid ethyl ester polymer; format: ADME
[5] = Partition coefficient (logP); format: physicochemical; conditions: octanol/water
[6] = Selectivity of guest-induced changes in membrane potential at pH 5.0 for PVC matrix liquid membranes incorporated with (2-Butoxy-5-tert-butyl-3-methyl-phenyl)-methanol polymer; format: ADME
[7] = Selectivity of guest-induced changes in membrane potential(Kpot A,B) at pH 5.0 for PVC matrix liquid membranes incorporated with 6,7,9,10,17,18,20,21-Octahydro-5,8,11,16,19,22-hexaoxa-dibenzo[a,j]cyclooctadecene; format: ADME

| Compound | Kpot A,B [1] | Kpot A,B [2] | Kpot A,B [3] | Kpot A,B [4] | logP [5] | Kpot A,B [6] | Kpot A,B [7] |
| --- | --- | --- | --- | --- | --- | --- | --- |
| CCCCCCCCN | 1.68 | 19 | 2.58 | 3.52 | 2.93 | 2.01 | – |
| NCc1ccccc1 [BENZYLAMINE] | 0.78 | – | 0.15 | 0.15 | – | 0.45 | 0.9 |
| NC12CC3CC(CC(C3)C1)C2 [AMANTADINE] | 1.2 | 14.8 | < 0.01 | < 0.01 | 1.77 | 1.85 | – |
| CC(C)(C)N [TERT-BUTYLAMINE] | 0.56 | 0.4 | < 0.01 | < 0.01 | 0.72 | 0.31 | – |
| NCCc1ccccc1 [PHENETHYLAMINE] | 1 | 1 | 1 | 1 | 1.58 | 1 | – |
| NC[C@H](O)c1ccc(O)c(O)c1 [NOREPINEPHRINE] | – | – | – | – | 0.82 | – | – |
| CNC[C@H](O)c1ccc(O)c(O)c1 [EPINEPHRINE] | 0.65 | – | 0.089 | 0.09 | 0.59 | < 0.01 | – |
| NCCc1ccc(O)c(O)c1 [DOPAMINE] | 1 | – | 1 | 1 | 0.82 | 1 | – |
